ChEMBL document CHEMBL2016467, “Thiosemicarbazone fragment embedded within 1,2,4-triazole ring as inhibitors of Entamoeba histolytica” (Bioorg Med Chem Lett, 2012)

Legend:
Entamoeba histolytica = assay: Antiamoebic activity against Entamoeba histolytica HM-1:IMSS trophozoites after 72 hrs by microdilution method; type: functional, organism-based
[1] = Cytotoxicity against human MCF7 cells assessed as cell viability at 2.5 to 100 uM after 48 hrs by MTT assay; type: cell-based; details: read-out: Activity
MCF7 [2] = assay: Cytotoxicity against human MCF7 cells assessed as cell viability at 250 uM after 48 hrs by MTT assay; type: cell-based; details: mcf7, 48 h
MCF7 [3] = assay: Cytotoxicity against human MCF7 cells after 48 hrs by MTT assay; type: cell-based; details: MCF7, 48 h

| Compound | IC50 (Entamoeba histolytica) [nM] | viability at 48 h, up to 100 µM [1] [%] | Activity (MCF7 [2]) | IC50 (MCF7 [3]) [µM] |
| --- | --- | --- | --- | --- |
| COc1cc(/C=N/n2c(S)nnc2-c2ccccc2)cc(OC)c1OC | 2700 | – | – | – |
| Nn1c(S)nnc1-c1ccccc1 | 10800 | – | – | – |
| Cc1ccc(/C=N/n2c(S)nnc2-c2ccccc2)cc1 | 1380 | 65 | Non-toxic | > 250 |
| COc1ccc(/C=N/n2c(S)nnc2-c2ccccc2)cc1 | 322 | 60 | Non-toxic | > 250 |
| COc1ccc(OC)c(/C=N/n2c(S)nnc2-c2ccccc2)c1 | 8790 | – | – | – |
| O=[N+]([O-])c1ccc(/C=N/n2c(S)nnc2-c2ccccc2)cc1 | 280 | 60 | Non-toxic | > 250 |
| CN(C)c1ccc(/C=N/n2c(S)nnc2-c2ccccc2)cc1 | 309 | 65 | Non-toxic | > 250 |
| FC(F)(F)c1ccccc1/C=N/n1c(S)nnc1-c1ccccc1 | 4680 | – | – | – |
| S=C(N1CCC(Cc2ccccc2)CC1)N1CCC(c2cccc(Cl)c2)=N1 | 1000 | – | – | – |
| Cc1nnc2n(NC(=S)NC34CC5CC(CC(C5)C3)C4)c(C)nnc1-2 | 840 | – | – | – |
| O=[N+]([O-])c1ccc(/C=N/NC(=S)N2CCCCCCC2)s1 | 1710 | – | – | – |
| COc1cc(/C=N/n2c(-c3ccccc3)n[nH]c2=S)ccc1O | 3050 | – | – | – |
| Oc1ccc(/C=N/n2c(-c3ccccc3)n[nH]c2=S)cc1 | 10200 | – | – | – |
| S=c1[nH]nc(-c2ccccc2)n1/N=C/c1ccc(Cl)cc1 | 9550 | – | – | – |
| Cc1ncc([N+](=O)[O-])n1CCO [METRONIDAZOLE] | – | > 70 | Non-toxic | > 250 |
| NNC(N)=S [THIOSEMICARBAZIDE] | 2290 | – | – | – |
